Results as given in US7812044B2, “Anticancer agents” (Takeda Pharmaceutical Company Limited, priority 2001, dated 2010).

Columns and labels:
MAPK [1] = assay: Phosphorylation of MAPK in LNCaP cells stimulated with EGF; format: cell-based; settings: EGF 1 ng/ml, compound 10^-6 M added 30 minutes before
Method: (1) LNCaP cells (10^7 cells) were cultured in a serum-free culture medium (F-12+1 mg/ml BSA) for 24 hours, each concentration of EGF and Compound B (10^−6 M) were added, and phosphorylation of MAPK was investigated.

[2] = system: LNCaP (androgen receptor positive cell line derived from metastasis of prostate cancer); assay: Cell number of LNCaP prostate cancer cells 5 days after addition of EGF and compound; format: cell-based; settings: serum free, 10^-6 M compound plus EGF
Method: Prostate cancer cells, LNCaP (androgen receptor positive cell line derived from metastasis of prostate cancer) were seeded on a dish (1×10^5 cells/dish), and cultured for 24 hours under serum free conditions. Then, EGF and Compound B were added, and 5 days after, the number of cells was counted [FIG. 2].

[3] = system: DU-145 (androgen receptor negative cell line derived from metastasis of prostate cancer); assay: Cell number of DU-145 prostate cancer cells 5 days after addition of EGF and compound; format: cell-based; settings: DU-145, serum free, 10^-6 M compound plus EGF
Method: Prostate cancer cells, DU-145 (androgen receptor negative cell line derived from metastasis of prostate cancer) were seeded on a 6-well dish (1×10^5 cells/well), and cultured for 24 hours under serum free conditions. Then, EGF and 2-ethoxy-1-[[2′-(1H-tetrazol-5-yl)biphenyl-4-yl]methyl]benzimidazole-7-carboxylic acid (Compound B) were added, and 5 days after, the number of cells was counted with a hematocytometer [FIG. 1].

MAPK [4] = assay: Phosphorylation of MAPK in LNCaP cells stimulated with IL-6; format: cell-based; settings: IL-6 25 ng/ml, compound 10^-6 M, 5x10^-6 M, 10x10^-6 M
Method: (3) LNCaP cells (10^7 cells) were cultured in a serum-free culture medium (F-12+1 mg/ml BSA) for 24 hours, IL-6: 25 ng/ml and each concentration of Compound B (10^−6 M, 5×10^−6 M, 10×10^−6 M) were added, and phosphorylation of MAPK was investigated.

STAT3 [5] = assay: Phosphorylation after EGF stimulation of LNCaP cells, each concentration of compound; format: cell-based; settings: EGF 1 ng/ml, compound 10^-6 M, 5x10^-6 M, 10x10^-6 M
[6] = system: microvessels in DU145 tumor; assay: Number of microvessels in DU145 tumor of nude mouse, anti-CD31 staining; format: in vivo, nude mouse (Balb/c); settings: 5 mg/kg/day orally, 4 weeks, magnification 400; control 72.5±9.7, P<0.02
Method: To a male 4 week old nude mouse (Balb/c), 5×10^6 DU145 cells were subcutaneously injected on a back. After 10 days, when tumor having a diameter of 5 mm was formed (0 week), Candesartan cilexetil (Compound C) was mixed into drinking water (each group: n=3) so that Compound C could be orally taken the an amount of 5 mg/kg/day. As a control group, a group (n=3) receiving no Compound C was bred at the same time. Initiation of the oral administration was regarded as week 0, each group was bred for 4 weeks, and thereafter, tumor was isolated, stained with an anti-CD31 antibody as described hereinafter, and the number of microvessels in tumor was examined. Under a microscope (magnification 400), four places rich in the number of microvessels were selected from a tumor solid tissue part, and the number was counted. The results are shown in [FIG. 7]. Average 72.5±9.7 vessels were recognized in one field in case of the control group, and average 37.5±3.3 vessels were recognized in one field in case of the Compound C-administered group and, thus, a significant difference was recognized between both groups (P<0.02).
Vessels in a tumor-transplanted tissue of a nude mouse were immunologically stained using an anti-mouse CD31 antibody, and the number of vessels and vascularization state were studied. Procedures were as follows: […]

DU145 cells = assay: Tumor growth of subcutaneous DU145 tumor in nude mouse, compound in drinking water; format: in vivo, nude mouse (Balb/c)
Method: To a male 4 week-old nude mouse (Balb/c), 5×10^6 DU145 cells were subcutaneously injected on a back. After 10 days, when tumor having a diameter of 5 mm was formed (week 0), Candesartan cilexetil (Compound C) was mixed into drinking water so that Compound C could be orally taken at a dosage of 5 mg/kg day or 2.5 mg/kg day (each group: n=5). As a control group, a group (n=5) receiving no Compound C was bred at the same time. Initiation of the oral administration was regarded as week 0, each group was bred for 4 weeks, and a diameter of tumor was measured every week.

STAT3 [7] = assay: Activated STAT3 in LNCaP cells, Western blotting with anti-phospho-STAT3 (Tyr705) antibody; format: cell-based; settings: 24 h no serum, angiotensin II 1x10^-6 M or EGF 1 ng/ml
Method: In order to make clear the effect of angiotensin II on an cellular protein STAT3 which is one of signal transducing molecules of a growth factor and a cytokine and is said to be involved in cell growth, prostate cancer LNCaP cells were cultured for 24 hours with no serum stimulation, and then, stimulated with angiotensin II (1×10^−6 M) or EGF (1 ng/ml) already known to have growth promoting effect, and cells were collected at an appropriate time. The whole cell lysate was separated by SDS-PAGE, and then, transferred onto a PVDF membrane. Activated STAT3 and a total amount of STAT3 were confirmed by Western blotting method using an anti-phospho-STAT3 (Tyr705) antibody which recognizes only activated STAT3 (Cell Signaling Technology, 166B Cumming Center Beverly, Mass. 01915 U.S.A.: in FIG. 5, WB: PSTAT3), and a STAT3 antibody which recognizes all endogenous STAT3s (Cell Signaling Technology, 166B Cumming Center Beverly, Mass. 01915 U.S.A.: in FIG. 5, WB: STAT3) [FIG. 5]. […] That is, it has been apparent that STAT3 controlling cell growth is activated by stimulation with angiotensin II.

[8] = system: tyrosine phosphorylation of cellular proteins in LNCaP cells; assay: Tyrosine phosphorylation of cellular proteins in LNCaP cells, Western blotting with anti-phospho-tyrosine antibody; format: cell-based; settings: 24 h no serum, angiotensin II 1x10^-6 M or EGF 1 ng/ml, 5 minutes
Method: It is already known that, when growth stimulation such as EGF is applied to cells, phosphorylation of cellular proteins is induced by activation of signal transduction pathway. Then, in order to make clear the effect of angiotensin II on prostate cancer, prostate cancer LNCaP cells were cultured for 24 hours with no serum stimulation, and then, the culture was stimulated with angiotensin II (1×10^−6 M) or EGF (1 ng/ml) which was already known to have growth promoting effect, and 5 minutes after, cells were collected. The whole cell lysate separated by SDS-PAGE, transferred onto a PVDF membrane, and then tyrosine phosphorylation of an cellular protein was observed by Western blotting method using an anti-phospho-tyrosine antibody (Upstate, 10 Old Barn Road Lake Placid, N.Y. 12946 U.S.A.) [FIG. 3]. […] That is, it is considered that stimulation with angiotensin II has the same or similar effect as that of stimulation with EGF on prostate cancer cells.

MAP kinase = assay: Activated MAP kinase in LNCaP cells, Western blotting with anti-phospho-MAP kinase antibody; format: cell-based; settings: 24 h no serum, angiotensin II 1x10^-6 M or EGF 1 ng/ml
Method: In order to make clear the effect of angiotensin II on MAP kinase which is one of cellular proteins controlling cell growth, prostate cancer LNCaP cells were cultured for 24 hours with no serum stimulation, and then, stimulated with angiotensin II (1×10^−6 M) or EGF (1 ng/ml) already known to have growth promoting effect, and cells were collected at an appropriate time. The whole cell lysate was separated by SDS-PAGE, and then, transferred onto a PVDF membrane, and a total amount of cellular activated MAP kinase and MAP kinase was measured by Western blotting method using an anti-phospho-MAP kinase antibody which recognizes only activated MAP kinase (Cell Signaling Technology, 166B Cumming Center Beverly, Mass. 01915 U.S.A.: in FIG. 4, WB: PMAPK), and a MAP kinase antibody which recognizes all endogenous MAP kinases (Cell Signaling Technology, 166B Cumming Center Beverly, Mass. 01915 U.S.A.: in FIG. 4, WB: MAPK) [FIG. 4]. […] That is, it has been apparent that MAP kinase controlling cell growth is activated by stimulation of angiotensin II.

CCOc1nc2cccc(C(=O)O)c2n1Cc1ccc(-c2ccccc2-c2nnn[nH]2)cc1 [Compound B, 2-ethoxy-1-[[2′-(1H-tetrazol-5-yl)biphenyl-4-yl]methyl]benzimidazole-7-carboxylic acid] was tested, and the “phosphorylation of MAPK by EGF stimulation” value (MAPK [1]) was “phosphorylation was inhibited”, the “reduction of the number of cells as compared with stimulation with EGF alone” value [2] was “about 22%” and the “reduction of the number of cells as compared with stimulation with EGF alone” value [3] was “about 12%”. For the same compound, the “phosphorylation of MAPK by IL-6” value (MAPK [4]) was “inhibited in a Compound B dose dependent manner” and the “phosphorylation of STAT3 by EGF stimulation” value (STAT3 [5]) was “inhibited in a Compound B dose dependant manner”.

CCOc1nc2cccc(C(=O)OC(C)OC(=O)OC3CCCCC3)c2n1Cc1ccc(-c2ccccc2-c2nnn[nH]2)cc1 (centres unmarked) [Compound C, 1-(cyclohexyloxycarbonyloxy)ethyl 2-ethoxy-1-[[2′-(1H-tetrazol-5-yl)biphenyl-4-yl]methyl]benzimidazole-7-carboxylate] was tested, and the “number of microvessels in tumor, average vessels in one field” value [6] was 37.5±3.3 vessels, the “growth inhibition as compared with the control group” value (DU145 cells; 5 mg/kg/day orally, in and after week 2) was “significant difference of P<0.01” and the “tumor growth (diameter of tumor)” value (DU145 cells; 5 or 2.5 mg/kg/day orally in drinking water, from week 2, 4 weeks) was “inhibition of tumor growth was observed”.

With “angiotensin II: stimulant of LNCaP cells acting on the angiotensin II receptor AT1 (DRVYIHPF; Angiotensin-2; UniProt P01019 25-32, looked up)” the “activated STAT3 (WB: PSTAT3)” value (STAT3 [7]) was “activated STAT3 was increased”, the “tyrosine phosphorylation of cellular proteins” value [8] was “tyrosine phosphorylation of the same protein by stimulation with angiotensin II was also observed” and the “activated MAP kinase (WB: PMAPK)” value (MAP kinase) was “activated MAP kinase was increased”.

In the case of “EGF: growth factor already known to have growth promoting effect”, the “activated STAT3 (WB: PSTAT3)” value (STAT3 [7]) is reported as “activated STAT3 was increased”, the “tyrosine phosphorylation of cellular proteins” value [8] is reported as “tyrosine phosphorylation was induced” and the “activated MAP kinase (WB: PMAPK)” value (MAP kinase) is reported as “activated MAP kinase was increased”.
